Source: patent US11873298B2, “Compounds and uses thereof” (JANSSEN PHARMACEUTICA NV, priority 2017, dated 2024)
Where “and” joins values, the source holds several entries; their conditions need not be identical. Equal values may be shown once.

Tests used:
SCD1 = biological target: T1, SCD1 (Homo sapiens, UniProt O00767); test: Growth inhibition of humanized yeast strain expressing SCD1 as sole desaturase; assay type: cell-based; details: humanized yeast strain expressing SCD1
T1 construct: host or cells: S. cerevisiae ole1Δ strain (W303 pdr1Δ pdr3Δ background), plasmid pRS316 with TDH3 promoter and CYC1 terminator
T1 sequence (O00767 1-359): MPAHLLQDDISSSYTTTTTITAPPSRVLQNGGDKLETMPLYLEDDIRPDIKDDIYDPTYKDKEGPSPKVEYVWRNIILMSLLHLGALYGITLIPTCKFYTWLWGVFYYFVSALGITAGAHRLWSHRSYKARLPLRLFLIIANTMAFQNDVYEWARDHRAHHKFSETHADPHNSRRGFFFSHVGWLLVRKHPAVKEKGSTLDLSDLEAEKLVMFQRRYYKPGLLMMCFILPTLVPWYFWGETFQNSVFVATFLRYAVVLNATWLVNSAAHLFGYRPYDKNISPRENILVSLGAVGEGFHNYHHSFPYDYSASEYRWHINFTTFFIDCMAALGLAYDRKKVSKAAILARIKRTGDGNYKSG
Procedure, shortened: (§1)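 ole1Δ yeast (W303 pdr1Δ pdr3Δ background) carrying plasmid-borne Ole1, SCD1 or SCD5, grown in uracil-free media; cultures pre-grown in raffinose, seeded at 2× density 0.02 in galactose media with compound. Growth read as OD600 after 24 h at 30° C. for Ole1, 40 h for SCD1/SCD5.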

SCD5 = biological target: T2, SCD5 (Homo sapiens, UniProt Q86SK9); test: Growth inhibition of humanized yeast strain expressing SCD5 as sole desaturase; assay type: cell-based; details: humanized yeast strain expressing SCD5
T2 construct: host or cells: S. cerevisiae ole1Δ strain (W303 pdr1Δ pdr3Δ background), plasmid pRS316 with TDH3 promoter and CYC1 terminator
T2 sequence (Q86SK9 1-330): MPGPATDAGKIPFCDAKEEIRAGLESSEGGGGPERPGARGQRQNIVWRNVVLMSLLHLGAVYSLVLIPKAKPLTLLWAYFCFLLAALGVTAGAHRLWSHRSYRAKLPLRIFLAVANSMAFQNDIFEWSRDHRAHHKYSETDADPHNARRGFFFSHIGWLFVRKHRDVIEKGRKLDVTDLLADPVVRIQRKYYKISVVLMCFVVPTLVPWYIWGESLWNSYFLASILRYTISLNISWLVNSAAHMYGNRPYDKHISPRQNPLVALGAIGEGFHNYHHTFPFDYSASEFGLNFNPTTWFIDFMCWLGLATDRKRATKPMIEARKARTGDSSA
Procedure, shortened: as §1

Ole1 = biological target: T3, Ole1 (Saccharomyces cerevisiae, UniProt P21147); test: Growth inhibition of yeast strain expressing Ole1 as sole desaturase; assay type: cell-based; details: yeast strain expressing Ole1 as sole desaturase
T3 construct: expressed in transfected cells; host or cells: S. cerevisiae ole1Δ strain (W303 pdr1Δ pdr3Δ background), plasmid pRS316 with TDH3 promoter and CYC1 terminator
T3 sequence (P21147 1-510): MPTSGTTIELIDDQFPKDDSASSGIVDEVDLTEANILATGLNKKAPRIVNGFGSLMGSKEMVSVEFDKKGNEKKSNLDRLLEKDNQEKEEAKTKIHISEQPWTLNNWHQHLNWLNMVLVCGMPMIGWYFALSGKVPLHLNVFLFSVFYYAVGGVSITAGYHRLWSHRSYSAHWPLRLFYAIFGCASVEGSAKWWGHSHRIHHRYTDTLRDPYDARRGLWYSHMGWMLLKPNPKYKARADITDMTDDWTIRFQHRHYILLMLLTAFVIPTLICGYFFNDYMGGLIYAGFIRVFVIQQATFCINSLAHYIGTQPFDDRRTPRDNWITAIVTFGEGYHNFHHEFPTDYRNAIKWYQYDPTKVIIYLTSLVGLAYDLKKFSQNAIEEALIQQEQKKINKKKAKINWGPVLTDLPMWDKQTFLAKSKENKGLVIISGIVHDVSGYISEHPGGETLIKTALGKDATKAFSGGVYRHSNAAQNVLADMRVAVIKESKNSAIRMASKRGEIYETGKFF
Procedure, shortened: as §1

[1] = test system: yeast strains expressing the human α-synuclein; test: Yeast α-synuclein toxicity rescue assay (OD600 growth); details: 40 h; for EC50: read-out: α-Syn EC50; for Emax: read-out: α-Syn Emax

COc1ccc(-c2noc(C3CCN(C(=O)C4CC(=O)N(C5CCCCC5)C4)CC3)n2)cc1OC (stereo not drawn) [Compound 125]
IC50 (SCD1): > 45 µM
SCD1 % Max Inhibition (SCD1): 77.68%
IC50 (SCD5): > 45 µM
SCD5 % Max Inhibition (SCD5): 94.83%
IC50 (Ole1): > 45 µM
OLE1 % Max Inhibition (Ole1): 92.36%
EC50 [1]: 16.7 µM
Emax [1]: 200%

COc1ccc(-c2noc(C3CCN(C(=O)c4ccc(C(C)C)cc4)CC3)n2)cc1OC [Compound 127]
IC50 (SCD1): > 45 µM
SCD1 % Max Inhibition (SCD1): 66.46%
IC50 (SCD5): > 45 µM
SCD5 % Max Inhibition (SCD5): 88.59%
IC50 (Ole1): > 45 µM
OLE1 % Max Inhibition (Ole1): 99.27%
EC50 [1]: 7.42 µM
Emax [1]: 349%

CCOc1ccc(-c2noc(C3CCN(C(=O)C(CO)N4Cc5ccccc5C4=O)CC3)n2)cc1OC (stereo not drawn) [Compound 128]
IC50 (SCD1): > 45 µM
IC50 (SCD5): > 45 µM
SCD5 % Max Inhibition (SCD5): 1.89% and 3.32%
IC50 (Ole1): > 45 µM
OLE1 % Max Inhibition (Ole1): 81.43% and 60.60%
EC50 [1]: 0.252 µM
Emax [1]: 306%

Cc1nn(C)c2cc(-c3noc(C4CCN(C(=O)C(CO)N5Cc6ccccc6C5=O)CC4)n3)ccc12 (stereo not drawn) [Compound 129]
IC50 (SCD1): > 45 µM
SCD1 % Max Inhibition (SCD1): 75.60%
IC50 (SCD5): > 45 µM
SCD5 % Max Inhibition (SCD5): 93.05%
IC50 (Ole1): > 45 µM
OLE1 % Max Inhibition (Ole1): 3.25%
EC50 [1]: 0.047 µM
Emax [1]: 360%

CCOc1ncc(-c2noc(C3CCN(C(=O)C4CC(=O)N(c5ccccc5)C4)CC3)n2)cc1OC (stereo not drawn) [Compound 130]
IC50 (SCD1): > 45 µM
SCD1 % Max Inhibition (SCD1): 97.82%
IC50 (SCD5): > 45 µM
SCD5 % Max Inhibition (SCD5): 99.82%
IC50 (Ole1): > 45 µM
OLE1 % Max Inhibition (Ole1): 2.75%
EC50 [1]: 1.44 µM
Emax [1]: 328%

CCOc1ncc(-c2noc(C3CCN(C(=O)CN4Cc5ccccc5C4=O)CC3)n2)cc1OC [Compound 131]
IC50 (SCD1): > 45 µM
SCD1 % Max Inhibition (SCD1): 96.48%
IC50 (SCD5): > 45 µM
SCD5 % Max Inhibition (SCD5): 98.92%
IC50 (Ole1): 25.8 µM
OLE1 % Max Inhibition (Ole1): 39.81%
EC50 [1]: 0.167 µM
Emax [1]: 352%

CCOc1ncc(-c2noc(C3CCN(C(=O)CNC(=O)c4ccccc4)CC3)n2)cc1OC [Compound 132]
IC50 (SCD1): > 45 µM
SCD1 % Max Inhibition (SCD1): 115.10%
IC50 (SCD5): > 45 µM
SCD5 % Max Inhibition (SCD5): 94.34%
IC50 (Ole1): > 45 µM
OLE1 % Max Inhibition (Ole1): 7.45%
EC50 [1]: 1.01 µM
Emax [1]: 253%

Cn1c(=O)[nH]c2ccc(-c3noc(C4CCN(C(=O)CN5Cc6ccccc6C5=O)CC4)n3)cc21 [Compound 133]
IC50 (SCD1): 37.3 µM
SCD1 % Max Inhibition (SCD1): 61.21%
IC50 (SCD5): > 45 µM
SCD5 % Max Inhibition (SCD5): 74.75%
IC50 (Ole1): > 45 µM
OLE1 % Max Inhibition (Ole1): 26.72%
EC50 [1]: 6.38 µM
Emax [1]: 281%

Cn1c(=O)[nH]c2ccc(-c3noc(C4CCN(C(=O)C5CC(=O)N(c6ccccc6)C5)CC4)n3)cc21 (stereo not drawn) [Compound 134]
IC50 (SCD1): > 45 µM
SCD1 % Max Inhibition (SCD1): 107.77%
IC50 (SCD5): > 45 µM
SCD5 % Max Inhibition (SCD5): 98.55%
IC50 (Ole1): > 45 µM
OLE1 % Max Inhibition (Ole1): 93.94%
EC50 [1]: 14 µM
Emax [1]: 357%

Cc1noc2cc(-c3noc(C4CCN(C(=O)CNC(=O)c5ccccc5)CC4)n3)ccc12 [Compound 135]
IC50 (SCD1): > 45 µM
SCD1 % Max Inhibition (SCD1): 92.42%
IC50 (SCD5): > 45 µM
SCD5 % Max Inhibition (SCD5): 91.64%
IC50 (Ole1): > 45 µM
OLE1 % Max Inhibition (Ole1): 99.53%
EC50 [1]: 0.593 µM
Emax [1]: 144%

Cc1noc2cc(-c3noc(C4CCN(C(=O)C5CC(=O)N(c6ccccc6)C5)CC4)n3)ccc12 (stereo not drawn) [Compound 136]
IC50 (SCD1): > 45 µM
SCD1 % Max Inhibition (SCD1): 34.33%
IC50 (SCD5): > 45 µM
SCD5 % Max Inhibition (SCD5): 17.07%
IC50 (Ole1): > 45 µM
OLE1 % Max Inhibition (Ole1): 73.60%
EC50 [1]: 4.08 µM
Emax [1]: 67%
